For data set [1], the target named is T1, Trypanosoma brucei pteridine reductase 1 (TbPTR1) (Trypanosoma brucei brucei, UniProt O76290).
T1 construct: made in house
T1 sequence (O76290 1-268): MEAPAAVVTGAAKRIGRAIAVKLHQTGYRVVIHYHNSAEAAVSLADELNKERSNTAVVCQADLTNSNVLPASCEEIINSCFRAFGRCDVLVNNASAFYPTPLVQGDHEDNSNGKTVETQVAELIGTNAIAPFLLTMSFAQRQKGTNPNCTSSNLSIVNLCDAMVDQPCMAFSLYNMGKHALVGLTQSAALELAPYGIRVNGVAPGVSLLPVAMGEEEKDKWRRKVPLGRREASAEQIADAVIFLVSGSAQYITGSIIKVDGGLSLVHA
Particulars: flavonols 1A–3A, cited from earlier work; for IC50: evaluated as in previous paper.

In data set [2] the target is T2, Leishmania major pteridine reductase 1 (LmPTR1) (Leishmania major, UniProt Q01782).
T2 construct: made in house
T2 sequence (Q01782 1-288): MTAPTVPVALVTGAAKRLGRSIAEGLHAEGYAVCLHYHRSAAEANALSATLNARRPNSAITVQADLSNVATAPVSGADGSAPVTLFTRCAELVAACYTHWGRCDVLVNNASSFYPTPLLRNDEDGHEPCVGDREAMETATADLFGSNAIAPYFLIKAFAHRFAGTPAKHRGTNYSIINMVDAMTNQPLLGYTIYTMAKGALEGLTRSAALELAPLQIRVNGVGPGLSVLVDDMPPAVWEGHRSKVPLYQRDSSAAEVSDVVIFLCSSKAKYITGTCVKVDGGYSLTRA
The conditions noted are these: flavonols 1A–3A, cited from earlier work; for IC50: evaluated as in previous paper.

Data set [3] has as its system L. infantum (MHOM/BR/1972/BH46) intracellular amastigotes. The data set is described as follows: Activity against L. infantum intramacrophage amastigotes (high-content imaging). Format: cell-based, Leishmania infantum. Particulars: Leishmania infantum; read-out: IC50 (reference compound for L. infantum). Here is the method: […] THP-1 cells were plated onto 384-well plates in Roswell Park Memorial Institute (RPMI) 1640 medium, Hyclone, GE Healthcare Life Sciences (Issaquah, WA, USA) containing 50 ng/mL phorbol 12-myristate 13-acetate (PMA, Sigma-Aldrich, Saint Louis, MS, USA), and incubated for 48 h. Then, 6 day-old promastigotes were added, at a ratio of 50 parasites per each THP-1 cell seeded earlier. After 24 h of infection, negative controls (0.5% DMSO), positive controls (10 μM amphotericin B) or compounds were added to the plate. Assay plates were incubated for 48 h, and then fixed with 4% paraformaldehyde and stained with Draq 5. The Operetta high-content automated imaging system was used to acquire images and the Harmony Software was optimized to quantify the host cell number, the infection ratio and the number of parasites per infected cell. The ratio between infected cells and total number of cells is then calculated, and defined as the Infection Ratio (IR). The raw data for IR values was normalized to negative—DMSO (mock)-treated infected cells—and positive (non-infected cells) controls to determine the normalized antiparasitic activity.

The subject of data set [4] is T. brucei bloodstream forms. The data set is described as follows: Activity against T. brucei bloodstream forms (resazurin-based assay). It counts as cell-based, Trypanosoma brucei. The conditions noted are these: Trypanosoma brucei; read-out: IC50 (reference compound for T. brucei). How it is done: The efficacy of compounds against T. brucei bloodstream forms was evaluated using a modified resazurin-based assay previously described in literature.
Background: The colour change of resazurin is a common sign of viable cells or microbes.

Data set [5] has as its target T2, Leishmania major pteridine reductase 1 (LmPTR1). The data set is described as follows: LmPTR1 enzyme reporter assay (cytochrome-c reduction, 550 nm). Format: biochemical. The conditions noted are these: read-out: % Inhibition LmPTR1 (50 μM). Here is the method:
(§1) TbPTR1 and LmPTR1 were purified as reported in literature. The enzyme kinetic profile of each selected protein was characterized by a spectrophotometric assay. The experimental assay consists of enzyme kinetic reaction monitoring at 340 nm for a total time of 180 s. The enzyme kinetic activity was measured at steady-state concentration of 7,8-dihydro-L-biopterin (H2B) and NADPH substrates equal to 50 and 120 µM and varying the enzyme concentration in the 0.001–0.006 µM and 0.005–0.010–0.015–0.020–0.025–0.030 µM range for Lm- and TbPTR1, respectively. The resulting kcat values were equal to 0.68 (s^−1) and 7.2 (s^−1) for Tb- and LmPTR1, respectively. For both TbPTR1 and LmPTR1, the Km value evaluation assay for H2B- and NADPH-substrates was performed in the 0.3-0.6–0.9–1.2–2.4–4.8 µM and 3.0–6.0–12.0–40.0–90.0–190.0 µM concentrations range, respectively.
(§2) Compounds 1A–3A were evaluated as reported in our previous paper. The novel synthesized compounds 1–3 were tested towards TbPTR1 and LmPTR1 using the in vitro TbPTR1/LmPTR1 enzyme reporter assay. The experimental procedure consists of monitoring the non-enzymatic reduction reaction of cytochrome-c at 550 nm, related to the reduction reaction of H2B to tetrahydrobiopterin (H4B) by using NADPH as the cofactor. TbPTR1 and LmPTR1 enzyme activity was assayed in a buffer containing 20 mM sodium citrate (pH 6.0) in a final experimental volume equal to 600 µL. The final reaction mixture contained different substrates added in the following order: TbPTR1/LmPTR1 (0.018 µM/0.002 µM) in 20 mM Tris-HCl, glycerol 10% (v/v), pH 7.5; H2B at a final concentration equal to 0.3 µM; cytochrome-c (80 µM); Milli-Q water to a final volume of 600 µL and NADPH to a final concentration of 500 µM. Before the addition of NADPH, the reaction mixture was incubated for 10 min at 30 °C and 80 RPM. To allow the starting of the reaction, NADPH was added and the enzyme reaction was detected for a total time of 10 min at 30 °C, 550 nm. The inhibition profile characterization of compounds 1–3 was performed with a DU-640 spectrophotometer (Beckman Coulter, Brea, CA, USA). Each compound was assayed in duplicate against Tb/LmPTR1 target enzymes in the 0–10–25–50–80–150 µM concentrations range. At the different concentration values, the compounds were added to the reaction mixture (enzyme, H2B, cytochrome-c in 20 mM sodium citrate buffer and Milli-Q water) and incubated for 10 min at 30 °C, 80 RPM. The reaction was initiated by the addition of NADPH (500 µM) and monitored for 10 min at 30 °C, 550 nm. The absorbance values were processed by software analysis and transformed into the corresponding slopes. The percentages of inhibition and the IC50 values were determined.
For orientation: Reporter assays use an easily measured gene product as a stand-in for the process of interest.

Data set [6] deals with T1, Trypanosoma brucei pteridine reductase 1 (TbPTR1). Briefly: TbPTR1 enzyme reporter assay (cytochrome-c reduction, 550 nm). It counts as biochemical. Particulars: read-out: % Inhibition TbPTR1 (50 μM), 50 μM; compounds 1–3 and control. How it is done:
as §1, §2

Data set [7] concerns the molecule itself. The data set is described as follows: crystal structure; LmPTR1-NADP+ ternary complexes with compound 1 and with compound 3; hanging drop, 293 K, 12% PEG 4600, 100 mM sodium acetate pH 5.5, 120-160 mM calcium acetate; compounds soaked into pre-formed crystals; one homotetramer in the asymmetric unit.
Data set [8] deals with the molecule itself. Briefly: crystal structure; TbPTR1-NADP+-compound 1 ternary complex; sitting drop, room temperature, 1.5-2.5 M sodium acetate, 0.1 M sodium citrate pH 5.0; compound soaked into pre-formed crystals; one homotetramer in the asymmetric unit.

As to `O=c1c(O)c(-c2cccc(O)c2)oc2ccc(O)cc12` [Compound 1A], in data set [1], the “% Inhibition TbPTR1 (50 μM)” value is given as 96.1% and the IC50 (as a rule, the concentration at which inhibition is half-maximal) is 4.3 µM. Moreover, in data set [2], the “% Inhibition LmPTR1 (50 μM)” value is given as 86.2% and the IC50 is 12.5 µM.
As for `O=c1c(O)c(-c2ccc(O)cc2)oc2ccc(O)cc12` [Compound 2A], in data set [1], the “% Inhibition TbPTR1 (50 μM)” value is 2.6%. In addition, in data set [2], the “% Inhibition LmPTR1 (50 μM)” value was 10.8%.
As for `O=c1c(O)c(-c2ccc(O)c(O)c2)oc2ccc(O)cc12` [Compound 3A], in data set [1], the “% Inhibition TbPTR1 (50 μM)” value is recorded as 53.1% and the concentration for half-maximal inhibition (IC50) is 38 µM. In data set [2], the “% Inhibition LmPTR1 (50 μM)” value is reported as 75.4% and the IC50 was 35 µM.
Consider `CCCCCCCCCCCCCCCCOP(=O)([O-])OCC[N+](C)(C)C` [miltefosine, reference compound], for which, in data set [3], the IC50 is 2.65 ± 0.4 µM.
`N=C(N)c1ccc(OCCCCCOc2ccc(C(=N)N)cc2)cc1` [pentamidine, reference compound]: the IC50 in data set [4] came to 0.00155 ± 0.00024 µM.
Regarding `CCc1nc(N)nc(N)c1-c1ccc(Cl)cc1` [pyrimethamine, reference compound], the inhibition at 50 µM in data set [5] and in data set [6] was 100% each time.

B1: Leishmania major pteridine reductase 1 (enzyme)
chain: T2 sequence (Q01782 1-288)
notes: pteridine reductase 1 (PTR1) of Leishmania major; Crystallised with NADPH/NADP+ and soaked with compound 1 or 3 (small molecules); also called LmPTR1; PTR1; source: expressed and purified as reported in literature [14]
Take B1: the stoichiometry N – broadly, the number of molecules, sites or subunits per partner or assembly – in data set [7] stood at 4.

B2: Trypanosoma brucei pteridine reductase 1 (enzyme)
chain: T1 sequence (O76290 1-268)
modifications: oxo-cysteine at residue 168
notes: pteridine reductase 1 (PTR1) of Trypanosoma brucei; Crystallised with the cofactor NADP+ and soaked with compound 1 (small molecules); also called TbPTR1; PTR1; source: expressed and purified as reported in literature [14]
As to B2, in data set [8], the “stoichiometry N” value is 4.

These data come from publication PMC6155272, “Chroman-4-One Derivatives Targeting Pteridine Reductase 1 and Showing Anti-Parasitic Activity” (Molecules : A Journal of Synthetic Chemistry and Natural …, 2017).
